Results: patent publication US12187717B2, “Compound and use thereof in treating autoimmune diseases” (PARENCHYMA BIOTECH INC., priority 2022, dated 2025)

Tests used:
[1] = test system: CYP1A1; experiment: Induction of CYP1A1 protein expression in HepG2 (7-ethoxyresorufin/resorufin); assay type: cell-based, Human; details: HepG2, 1 μM, 24 hours, vs control (vehicle)
Experimental: After recovering HepG2 under culture in DMEM-fetal bovine serum (FBS) 10% medium and then confirming that the survival rate is 97% or more through trypan blue staining, the recovered product was centrifuged at a speed of 1200 rpm for 5 minutes at room temperature, and the cells were prepared by resuspending them in DMEM-fetal calf serum 10% medium at 1.5×10^5 cells/ml.
Thereafter, the cells were dispensed onto a 96-well plate by 200 μl, and each plate was treated with 3 μl of Compounds 6, 21, 32 and 39 at a concentration of 1 μM diluted in DMEM medium, and then cultured in a cell incubator (5% CO2 incubator) for 24 hours. As a control, 3 μl of 0.05% dimethylsulfoxide (DMSO)/DMEM medium was used for treatment.
After 24 hours, the medium of the plate was discarded, washed with dPBS, treated with 100 μl of 2 μM 7-ethoxyresorufin, and cultured in a cell incubator (5% CO2 incubator) for 30 minutes. After 30 minutes, each 75 μl of fluorescamine (150 μg/ml) was treated, then resorufine excitation was measured at 535 nm and emission at 590 nm. The standard curve was measured and used with 0 to 50 pmol of resorufin solution.
After measurement, all solutions were removed, followed by treating the same with 25 μl of 0.5 M sodium hydroxide (NaOH), the cells were scraped and reacted in a shaker at room temperature for 15 minutes.
After 15 minutes, protein was quantified using a Bradford method, and a value was obtained using a calculation formula (sample resorufin amount/sample protein amount), and then one (1) fold was set using the control.

[2] = target: CYP2C9 (Homo sapiens, UniProt P11712); experiment: CYP isoenzyme activity; assay type: in vitro ADME; details: 10 μM
Chain of CYP2C9 (P11712 whole entry): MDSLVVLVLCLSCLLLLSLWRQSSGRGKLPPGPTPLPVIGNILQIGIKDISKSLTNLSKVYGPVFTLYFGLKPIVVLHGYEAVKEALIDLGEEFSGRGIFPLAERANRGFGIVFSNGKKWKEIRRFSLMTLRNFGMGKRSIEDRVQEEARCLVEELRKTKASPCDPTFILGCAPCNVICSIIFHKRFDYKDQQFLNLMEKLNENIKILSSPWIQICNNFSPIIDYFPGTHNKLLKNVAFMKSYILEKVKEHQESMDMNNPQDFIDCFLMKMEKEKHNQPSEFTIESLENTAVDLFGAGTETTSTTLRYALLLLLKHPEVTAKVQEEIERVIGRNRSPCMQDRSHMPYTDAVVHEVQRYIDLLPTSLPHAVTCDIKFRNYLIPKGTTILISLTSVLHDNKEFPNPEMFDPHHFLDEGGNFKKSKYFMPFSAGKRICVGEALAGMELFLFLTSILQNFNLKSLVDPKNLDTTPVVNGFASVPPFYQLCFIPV

[3] = test system: Foxp3-expressing regulatory T cells (Treg); experiment: Production of Foxp3-expressing regulatory T cells from naive CD4 T cells (flow cytometry); assay type: cell-based, C57BL/6 mice; details: 3 days
Experimental: The spleen of C57BL/6 mice (8 to 12 weeks old, female) was excised, pulverized by adding RPMI medium, and then passed through a 40 μm cell strainer (BD Falcon), thereby obtaining a single cell suspension. The single cell suspension was centrifuged (1200 rpm, 5 minutes), and after discarding the supernatant, 1 ml of ACK lysis buffer was added, followed by stirring for 1 minute and then washing the same with RPMI medium. After the single cell suspension was centrifuged, T-cells were separated using a Mouse CD4 Naive T cell Enrichment Kit (Invitrogen). The separated T-cells were prepared by resuspending them in RPMI-fetal bovine serum (FBS) 10%+2-ME (mercaptoethanol) medium at 1×10^6/ml. For T-cell activation, 5 μg/ml anti-CD3 (eBioscience™) was dispensed by 100 μl onto a 96-well plate, reacted in a cell incubator (37° C., 5% CO2 incubator) for 4 hours, and washed with phosphate buffered saline to prepare the plate. The T-cells were dispensed by 200 μl onto the prepared plate, and each well was treated with 2 μg/ml of anti-CD28 (eBioscience™), 2 ng/ml of TGFβ-1 (R&D systems), and 100 U/ml of IL-2. Each 5 μl of Compounds 6 and 9 at a concentration of 2.5 μM diluted in RPMI-fetal bovine serum 10%+2-ME medium was used for treatment, followed by culturing the same in a cell incubator (37° C., 5% CO2 incubator) for 3 days. […]
In order to confirm the expression of Foxp3 protein, the recovered cells were placed in a 5 ml FACS tube (BD Falcon) and washed with 1 ml of phosphate buffered saline. […] The cells were washed twice with the Permeabilization buffer, suspended in 0.3 ml of FACS buffer, and measured by flow cytometry.
The promotion effects of Compound 6 and Comparative Example 1 on the production of “FoxP3-expressing regulatory T cells,” which play an important role in maintaining immune tolerance, were compared (FIG. 24). […] After 3 days, in order to confirm the effects of production of the regulatory T cells, the cultured cells were recovered and Foxp3 protein expression was measured in the same manner as in FIG. 4.

O=C(Cc1c[nH]c2ccc(Cl)cc12)Nc1nc2ccc(N3CCOCC3)cc2s1 [Compound 6, 2-(5-chloro-1H-indol-3-yl)-N-(6-morpholinobenzo[d]thiazol-2-yl)acetamide]
CYP1A1 protein expression level [1]: significantly higher | CYP2C9 activity [2]: 94.5 % of Control Activity | production of Foxp3-expressing regulatory T cells ([3]; 2.5 μM and 5 μM, compared to Comparative Example 1): significantly increased | production of Foxp3-expressing regulatory T cells ([3]; 2.5 μM, compared to Vehicle): markedly increased
